# Assay results taken from US20200094070A1, “METHOD AND APPARATUS FOR PHOTOACTIVATING NUCLEAR RECEPTORS” (THERALASE BIOTECH INC., priority 2017, published 2020).
# How the values were obtained:
# Rat glioma (RG2) cells [1] = experiment: LLLT combined with Cisplatin, Presto Blue cell kill, RG2 cells; format: cell-based; conditions: for Cisplatin-mediated cell kill after LLLT: RG2, 1 ug/ml
# Method: (§1) After 6 or 24 hours, the cells were treated with Cisplatin (1 ug/ml for RG2 cells or 1.5 ug/ml for T24 cells), and the plates were returned to the incubator overnight. Cell viability was measured by Presto Blue cell viability assay quantifying fluorescence at using a plate reader at excitation emissions of 560/600 nm. Values were normalized to control cells that were kept in the dark and not treated with LLLT.
# as §1, with “Values will be” for “Values were”, “that are” for “that were”
# (§2) Cells were then treated with either: 1) the ruthenium-based PDC 14C followed by PDT using a green laser light source (FIGS. 24A-24D); 2) the antineoplastic drug Cisplatin (FIGS. 25A-25D). The plates were then returned to the incubator overnight. Cell viability was measured by Presto Blue cell viability assay quantifying fluorescence at using a plate reader at excitation emissions of 560/600 nm. Values were normalized to control cells that were […].
# [2] = system: human bladder cancer (T24) cells; experiment: LLLT combined with Cisplatin, Presto Blue cell kill, T24 cells; format: cell-based; conditions: for Cisplatin-mediated cell kill after LLLT: T24, 1.5 ug/ml
# Method: as §1
# as §1, with “Values will be” for “Values were”, “that are” for “that were”
# as §2
# Rat glioma (RG2) cells [3] = experiment: LLLT combined with 14C PDT, Presto Blue cell kill, RG2 cells; format: cell-based; conditions: for 14C-mediated cell kill after LLLT: RG2, 100 nM 14C
# Method: (§3) RG2 cells (15,000 cells) or human bladder cancer (T24) cells (10,000 cells) were seeded in complete DMEM in 96-well culture plates and incubated at 37° C., 5% CO2 overnight. The next day, the cells were washed once with PBS and the medium was replaced with complete DMEM without phenol red or sodium pyruvate. Cells were treated with either 660 nm, 905 nm or a combination of both wavelengths at the indicated fluence doses in J/cm^2. After 6 or 24 hours, the media was replaced with media containing the ruthenium-based PDC 14C (100 nM for RG2 cells and 200 nM for T24 cells) for 1 hour, then the PDC was washed away and the cells were treated with PDT using green laser light (wavelength: 530 nm, fluence 20 J/cm^2) using a 96-laser diode array light source (TLD3000, Theralase Inc. Toronto, ON, Canada), after which the plates were returned to the dark in the incubator overnight. Cell viability was measured by Presto Blue cell viability assay quantifying fluorescence at using a plate reader at excitation emissions of 560/600 nm. PDT-mediated cell kill was calculated by subtracting cell kill due to LLLT first and values were normalized to control cells that were kept in the dark and not treated with LLLT.
# (§4) RG2 cells (7,500 cells) or human bladder cancer (T24) cells (5,000 cells) were seeded in complete DMEM in 96-well culture plates and incubated at 37° C., 5% CO2 overnight. The next day, the cells were washed once with PBS and the medium was replaced with complete DMEM without phenol red or sodium pyruvate, with or without 10 uM GCR antagonist mifepristone for an additional 24 hours. Cells were treated with either 660 nm, 905 nm or a combination of both wavelengths at the indicated energy doses in J/cm^2. After 6 or 24 hours, the media was replaced with media containing the ruthenium-based photodynamic compound 14C (100 nM for RG2 cells and 200 nM for T24 cells) for 3 hours, then the drug was washed away and the cells were treated with PDT using green laser (wavelength: 530 nm, fluence 20 J/cm^2) using a 96-laser diode array light source (TLD-3000, Theralase Inc. Toronto, ON, Canada), and the plates were returned to the dark in the incubator overnight. Cell viability was measured by Presto Blue cell viability assay quantifying fluorescence at using a plate reader at excitation emissions of 560/600 nm.
# CT26WT tumor cells = experiment: LLLT and PDT in vivo hind leg tumor model; design: species or system Balb/c mice; conditions: LLLT 2.5-20 J/cm^2 daily for 5 days; injection on day 5; suboptimal red light PDT 90 J/cm^2 4 hours after injection
# Method: CT26WT tumor cells were implanted in the hind leg of Balb/c mice to develop a hind leg tumor model. […] TLD-1433 (14C) was injected on day 5 of LLLT treatment and suboptimal red light PDT (90 J/cm^2) was performed 4 hours after injection. Tumor size and survival were determined to examine the effect of LLLT on potentiating the effect of 14C-mediated PDT and improving the survival curve.
# [4] = system: human bladder cancer (T24) cells; experiment: LLLT combined with 14C PDT, Presto Blue cell kill, T24 cells; format: cell-based; conditions: for 14C-mediated cell kill after LLLT: T24, 200 nM 14C
# Method: as §3, §4
# [5] = system: human bladder cancer (T24) cells; conditions: Mifepristone 10 uM, 24 hours
# Method: (§5) RG2 cells (30,000 cells) or human bladder cancer (T24) cells (20,000 cells) are seeded in complete DMEM in 96-well Seahorse culture plates (Agilent technologies) and incubated at 37° C., 5% CO2. The cells are treated for 24 hours with the GCR agonist, dexamethasone, or the GCR antagonist, Mifepristone (10 uM). The cells are then washed once with PBS and the medium replaced with complete DMEM without phenol red or sodium pyruvate. Cells are treated with either 660 nm, 905 nm or a combination of both wavelengths at energy doses from 0.5 to 10 J/cm^2. Cells are incubated for 24 hours. The media is then replaced with XF media without sodium bicarbonate and the plate placed at 37° C. in XF prep station (0% CO2) for 1 hour. Basal ECAR and OCR levels are measured using XFe96 analyzer (Agilent technologies) per the manufacturer's protocol.
# RG2 cells [6] = experiment: Stem-like characteristics of cancer cells (qPCR of stem cell genes, proliferation rate) after LLLT; format: cell-based, rat; conditions: 24 hours pre-treatment
# Method: Cells were then treated with 905 nm at fluence doses of 5 or 20 J/cm^2. Cells were incubated for 6 hours, then the cells were washed once with PBS and harvested by TRIzol reagent for RNA extraction (Invitrogen) per the manufacturer's protocol. 2 ug of RNA were used to prepare cDNA using the high-capacity cDNA reverse transcription kit (Thermofisher) and the cDNA was diluted 1:10. 2 μl of cDNA was used per PCR reaction using the SYBR green master mix and qPCR was run on the LightCycler 480 (Roche). Gene expression was normalized to the housekeeping gene HPRT, and values were normalized to control cells that were kept in the dark and not treated with LLLT. Relative analysis of stem cell associated transcription factor genes CD133, OCT4, NANOG, SOX2 and LIN28a, or proliferation promoting genes NESTIN, MSI1, MELK and ALDH1a1. […] Phase contrast images (4×) were taken every 4 hours using the Incucyte ZOOM system to calculate percent confluency overtime. […] Proliferation rate was calculated as the inverse of T (time when cells reach confluency halfway between original seeding density (15%) and final 100% confluency). Data were normalized to the corresponding dark control group (0 J/cm^2) for each drug expressed as 1 (not shown). […]
# RG2 cells [7] = conditions: Mifepristone 10 uM, 24 hours
# Method: as §5
# [8] = 5 J/cm^2 for 905 nm PW and most conditions with 660 nm CW alone (Example 9A)
# [9] = 905 nm PW or combined 905 nm PW and 660 nm CW at 20 J/cm^2 (Example 9A)
# [10] = LLLT 905 nm PW 5 J/cm^2 or 660 nm CW 2.5 J/cm^2 before PDT 530 nm 20 J/cm^2
# [11] = LLLT higher fluence values of 20 and 10 J/cm^2
# [12] = RG2, 10 uM pre-treatment, no LLLT
# [13] = RG2, 10 uM, LLLT 905 nm 5 J/cm^2, 660 nm 2.5 J/cm^2 or combination 5 J/cm^2
# [14] = T24, 10 uM pre-treatment, no LLLT
# [15] = T24, 10 uM, LLLT 905 nm 5 J/cm^2, 660 nm 2.5 J/cm^2 or combination 5 J/cm^2
compound,measurement,setting,value
N.N.[Cl][Pt][Cl] [Cisplatin],Cisplatin-mediated cell kill after LLLT,Rat glioma (RG2) cells [1]; [8],promoted cell survival
same,Cisplatin-mediated cell kill after LLLT,Rat glioma (RG2) cells [1]; [9],increased
same,Cisplatin effect after LLLT (without Mifepristone),"Rat glioma (RG2) cells [1]; RG2, 905 nm 5 J/cm^2, 660 nm 2.5 J/cm^2 or combination 5 J/cm^2 (Example 19)",increased
same,Cisplatin effective cell kill after LLLT (without Mifepristone),"Rat glioma (RG2) cells [1]; RG2, higher doses 10-20 J/cm^2 (Example 19)",decreased
same,Cisplatin-mediated cell kill after LLLT,[2]; [8],promoted cell survival
same,Cisplatin-mediated cell kill after LLLT,[2]; [9],increased
same,Cisplatin effect after LLLT (without Mifepristone),"[2]; T24, 905 nm 5 J/cm^2, 660 nm 2.5 J/cm^2 or combination 5 J/cm^2 (Example 19)",increased
same,Cisplatin effective cell kill after LLLT (without Mifepristone),"[2]; T24, higher doses 10-20 J/cm^2 (Example 19)",decreased
Cc1ccnc(-c2cc(C)ccn2)c1.Cc1ccnc(-c2cc(C)ccn2)c1.[Cl-].[Cl-].[Ru+2].c1csc(-c2ccc(-c3ccc(-c4nc5c6cccnc6c6ncccc6c5[nH]4)s3)s2)c1 [14C],14C-mediated cell kill after LLLT,Rat glioma (RG2) cells [3]; [10],increased
same,14C-mediated cell kill after LLLT,Rat glioma (RG2) cells [3]; [11],promoted cell survival
same,"survival of mice, LLLT plus PDT compared to PDT only",CT26WT tumor cells,synergistically increased the survival
same,14C-mediated cell kill after LLLT,[4]; [10],increased
same,14C-mediated cell kill after LLLT,[4]; [11],promoted cell survival
CC#C[C@]1(O)CC[C@H]2[C@@H]3CCC4=CC(=O)CCC4=C3[C@@H](c3ccc(N(C)C)cc3)C[C@@]21C [Mifepristone],effect of Mifepristone treatment on Cisplatin cell kill,Rat glioma (RG2) cells [1]; [12],did not have any significant effects
same,cell kill by Mifepristone treatment alone,"Rat glioma (RG2) cells [1]; RG2, 10 uM, 24 hours (Example 19)",did not induce cell kill
same,effect of Mifepristone pre-treatment on the synergistic effect of LLLT on Cisplatin,Rat glioma (RG2) cells [1]; [13],significantly inhibited
same,effect of Mifepristone treatment on Cisplatin cell kill,[2]; [14],did not have any significant effects
same,cell kill by Mifepristone treatment alone,"[2]; T24, 10 uM, 24 hours (Example 19)",did not induce cell kill
same,effect of Mifepristone pre-treatment on the synergistic effect of LLLT on Cisplatin,[2]; [15],significantly inhibited
same,"effect on Warburg effect (glycolysis, mitochondrial respiration)",[5],potentiates the Warburg effect
same,effect on LLLT inhibition of the Warburg effect,[5]; then LLLT 0.5 to 10 J/cm^2,reverses the positive effect
same,effect of Mifepristone treatment on PDT cell kill,Rat glioma (RG2) cells [3]; [12],did not have any significant effects
same,cell kill by Mifepristone treatment alone,"Rat glioma (RG2) cells [3]; RG2, 10 uM, 24 hours",did not induce cell kill
same,effect of Mifepristone pre-treatment on the synergistic effect of LLLT on 14C PDT,Rat glioma (RG2) cells [3]; [13],significantly inhibited
same,effect of Mifepristone pre-treatment on positive effects of LLLT on stem-like characteristics,RG2 cells [6],blocked
same,effect of Mifepristone treatment on PDT cell kill,[4]; [14],did not have any significant effects
same,cell kill by Mifepristone treatment alone,"[4]; T24, 10 uM, 24 hours",did not induce cell kill
same,effect of Mifepristone pre-treatment on the synergistic effect of LLLT on 14C PDT,[4]; [15],significantly inhibited
same,"effect on Warburg effect (glycolysis, mitochondrial respiration)",RG2 cells [7],potentiates the Warburg effect
same,effect on LLLT inhibition of the Warburg effect,RG2 cells [7]; then LLLT 0.5 to 10 J/cm^2,reverses the positive effect
